The target in this assay is T1, recombinant guanylate cyclase reporter cell line (Rattus norvegicus, UniProt P19686+P20595).
T1 construct: expressed in transfected cells
T1 sequence (P20595 1-619): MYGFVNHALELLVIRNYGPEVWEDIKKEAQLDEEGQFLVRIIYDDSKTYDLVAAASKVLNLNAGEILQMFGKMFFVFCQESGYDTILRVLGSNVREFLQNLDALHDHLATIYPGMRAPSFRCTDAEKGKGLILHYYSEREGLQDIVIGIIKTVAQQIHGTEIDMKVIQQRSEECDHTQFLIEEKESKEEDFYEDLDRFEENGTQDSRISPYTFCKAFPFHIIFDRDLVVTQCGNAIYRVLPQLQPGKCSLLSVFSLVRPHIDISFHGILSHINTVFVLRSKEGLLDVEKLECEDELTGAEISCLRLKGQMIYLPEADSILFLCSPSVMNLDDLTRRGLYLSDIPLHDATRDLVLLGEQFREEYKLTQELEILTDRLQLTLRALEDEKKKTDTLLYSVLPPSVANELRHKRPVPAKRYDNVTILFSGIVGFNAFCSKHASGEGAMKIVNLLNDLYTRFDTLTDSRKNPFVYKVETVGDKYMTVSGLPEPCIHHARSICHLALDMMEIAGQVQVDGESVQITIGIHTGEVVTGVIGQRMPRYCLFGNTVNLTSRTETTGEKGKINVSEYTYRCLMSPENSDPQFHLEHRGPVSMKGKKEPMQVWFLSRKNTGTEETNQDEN
T1 sequence (P19686 1-690): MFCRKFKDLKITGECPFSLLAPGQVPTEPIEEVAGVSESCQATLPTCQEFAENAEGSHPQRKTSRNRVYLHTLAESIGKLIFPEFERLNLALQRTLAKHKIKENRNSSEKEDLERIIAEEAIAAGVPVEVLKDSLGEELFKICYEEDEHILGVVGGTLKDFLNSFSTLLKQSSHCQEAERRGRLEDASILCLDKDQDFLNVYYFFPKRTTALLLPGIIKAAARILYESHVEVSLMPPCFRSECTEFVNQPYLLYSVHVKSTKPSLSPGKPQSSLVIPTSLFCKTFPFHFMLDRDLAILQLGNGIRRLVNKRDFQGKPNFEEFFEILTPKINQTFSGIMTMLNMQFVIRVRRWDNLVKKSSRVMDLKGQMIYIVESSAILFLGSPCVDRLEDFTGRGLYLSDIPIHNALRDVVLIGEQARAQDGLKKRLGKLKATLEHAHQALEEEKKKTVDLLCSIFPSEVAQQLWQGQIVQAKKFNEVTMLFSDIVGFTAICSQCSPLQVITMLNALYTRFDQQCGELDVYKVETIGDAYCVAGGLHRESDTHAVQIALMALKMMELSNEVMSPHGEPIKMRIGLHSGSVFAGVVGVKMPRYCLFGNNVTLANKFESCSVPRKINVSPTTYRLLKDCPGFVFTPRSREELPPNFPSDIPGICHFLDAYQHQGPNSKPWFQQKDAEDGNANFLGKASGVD
Briefly: Effect on a recombinant guanylate cyclase reporter cell line (B-2). In kind it is cell-based. The conditions noted are these: MEC = minimum effective concentration; in some cases mean values from individual determinations. The protocol:
B-2. Effect on a Recombinant Guanylate Cyclase Reporter Cell Line
The cellular activity of the compounds according to the invention is determined using a recombinant guanylate cyclase reporter cell line, as described in F. Wunder et al., Anal. Biochem. 339, 104-112 (2005).
Representative MEC values (MEC=minimum effective concentration) for the compounds of the invention are shown in the table below (in some cases as mean values from individual determinations): […]
For `Cc1cc(OCCC(C(F)(F)F)C(F)(F)F)c2nc(C)c(C(=O)NC(C#N)c3ccc(Cl)cc3)n2c1` (racemic) [Example 23, rac-N-[(4-chlorophenyl)(cyano)methyl]-2,6-dimethyl-8-[4,4,4-trifluoro-3-(trifluoromethyl)butoxy]imidazo[1,2-a]pyridine-3-carboxamide], the MEC is 3 µM.

As to `Cc1cc(OCc2c(F)cccc2F)c2nc(C)c(C(=O)NCC#N)n2c1` [Example 2, N-(cyanomethyl)-8-[(2,6-difluorobenzyl)oxy]-2,6-dimethylimidazo[1,2-a]pyridine-3-carboxamide], the MEC was found to be 0.3 µM.

For `COc1ccc(NC(=O)c2c(C)nc3c(OCc4c(F)cccc4F)cc(C)cn23)cc1C#N` [Example 37, N-(3-cyano-4-methoxyphenyl)-8-[(2,6-difluorobenzyl)oxy]-2,6-dimethylimidazo[1,2-a]pyridine-3-carboxamide], the MEC is 0.3 µM.

With `Cc1cc(OCc2c(F)cccc2F)c2nc(C)c(C(=O)NC3CCCCC3C#N)n2c1` (centres unmarked) [Example 11, N-(2-cyanocyclohexyl)-8-[(2,6-difluorobenzyl)oxy]-2,6-dimethylimidazo[1,2-a]pyridine-3-carboxamide], the MEC was found to be 0.3 µM.

For `CCOc1ccc(NC(=O)c2c(C)nc3c(OCc4c(F)cccc4F)cc(C)cn23)cc1C#N` [Example 32, N-(3-Cyano-4-ethoxyphenyl)-8-[(2,6-difluorobenzyl)oxy]-2,6-dimethylimidazo[1,2-a]pyridine-3-carboxamide], the MEC amounted to 1 µM.

Turning to `Cc1cc(OCC2CC(F)(F)C2)c2nc(C)c(C(=O)NC(C#N)c3ccc(Cl)cc3)n2c1` (racemic) [Example 31, rac-N-[(4-chlorophenyl)(cyano)methyl]-8-[(3,3-difluorocyclobutyl)methoxy]-2,6-dimethylimidazo[1,2-a]pyridine-3-carboxamide], the MEC came out at 10 µM.

For `Cc1cc(OCc2c(F)ccc(F)c2F)c2nc(C)c(C(=O)NC(C#N)c3ccc(Cl)cc3)n2c1` (racemic) [Example 17, rac-N-[(4-Chlorophenyl)(cyano)methyl]-2,6-dimethyl-8-[(2,3,6-trifluorobenzyl)oxy]imidazo[1,2-a]pyridine-3-carboxamide], the MEC came out at 0.3 µM.

Turning to `Cc1cc(OCc2c(F)cccc2F)c2nc(C)c(C(=O)NC3CNCC(C#N)C3)n2c1` (centres unmarked) [Example 38, N-(5-Cyanopiperidin-3-yl)-8-[(2,6-difluorobenzyl)oxy]-2,6-dimethylimidazo[1,2-a]pyridine-3-carboxamide], the MEC stood at 0.3 µM.

For the compound `Cc1cc(OCc2c(F)cccc2F)c2nc(C)c(C(=O)NCC(N)CCCC#N)n2c1` (racemic) [Example 45, rac-N-(2-Amino-5-cyanopentyl)-8-[(2,6-difluorobenzyl)oxy]-2,6-dimethylimidazo[1,2-a]pyridine-3-carboxamide], the MEC is 2 µM.

On to `Cc1cc(OCc2c(F)cccc2F)c2nc(C)c(C(=O)NCC(N)CCCC#N)n2c1` (single isomer, unassigned) [Example 46, ent-N-(2-Amino-5-cyanopentyl)-8-[(2,6-difluorobenzyl)oxy]-2,6-dimethylimidazo[1,2-a]pyridine-3-carboxamide], for which the MEC was found to be 3 µM.

In the case of `Cc1cc(OCc2c(F)cccc2F)c2nc(C)c(C(=O)NC(C)C#N)n2c1` (single isomer, unassigned) [Example 15, ent-N-(1-Cyanoethyl)-8-[(2,6-difluorobenzyl)oxy]-2,6-dimethylimidazo[1,2-a]pyridine-3-carboxamide], the MEC is 0.3 µM.

As to `Cc1nc2c(OCC3CCCCC3)cccn2c1C(=O)NC(C#N)c1ccc(Cl)cc1` (racemic) [Example 20, rac-N-[(4-chlorophenyl)(cyano)methyl]-8-(cyclohexylmethoxy)-2-methylimidazo[1,2-a]pyridine-3-carboxamide], the MEC is 1 µM.

Consider `N#CC(NC(=O)c1cnc2c(OCc3c(F)cccc3F)cccn12)c1ccc(Cl)cc1` (racemic) [Example 18, rac-N-[(4-chlorophenyl)(cyano)methyl]-8-[(2,6-difluorobenzyl)oxy]imidazo[1,2-a]pyridine-3-carboxamide], for which the MEC amounted to 10 µM.

Consider `Cc1nc2c(OCc3ncccc3F)cccn2c1C(=O)NC(C#N)c1ccc(Cl)cc1` (racemic) [Example 21, rac-N-[(4-chlorophenyl)(cyano)methyl]-8-[(3-fluoropyridin-2-yl)methoxy]-2-methylimidazo[1,2-a]pyridine-3-carboxamide], for which the MEC is 10 µM.

As for `Cc1cc(OCc2c(F)cncc2F)c2nc(C)c(C(=O)NC(C#N)c3ccc(Cl)cc3)n2c1` (racemic) [Example 30, rac-N-[(4-chlorophenyl)(cyano)methyl]-8-[(3,5-difluoropyridin-4-yl)methoxy]-2,6-dimethylimidazo[1,2-a]pyridine-3-carboxamide], the MEC worked out at 1 µM.

With `Cc1cc(OCc2c(F)cccc2F)c2nc(C)c(C(=O)Nc3ccc(CC#N)cc3)n2c1` [Example 36, N-[4-(cyanomethyl)phenyl]-8-[(2,6-difluorobenzyl)oxy]-2,6-dimethylimidazo[1,2-a]pyridine-3-carboxamide], the MEC was 1 µM.

Regarding `Cc1cc(OCc2c(F)cccc2F)c2nc(C)c(C(=O)Nc3ccccc3CC#N)n2c1` [Example 35, N-[2-(cyanomethyl)phenyl]-8-[(2,6-difluorobenzyl)oxy]-2,6-dimethylimidazo[1,2-a]pyridine-3-carboxamide], the MEC was determined as 0.3 µM.

In the case of `Cc1cc(OCc2c(F)cccc2F)c2nc(C)c(C(=O)NCCC#N)n2c1` [Example 9, N-(2-cyanoethyl)-8-[(2,6-difluorobenzyl)oxy]-2,6-dimethylimidazo[1,2-a]pyridine-3-carboxamide], the MEC was determined as 0.3 µM.

As for `Cc1cc(OCc2c(F)ccc(C3CC3)c2F)c2nc(C)c(C(=O)NCC3CCC(C#N)CC3)n2c1` (centres unmarked) [Example 40, N-[(4-Cyanocyclohexyl)methyl]-8-[(3-cyclopropyl-2,6-difluorobenzyl)oxy]-2,6-dimethylimidazo[1,2-a]pyridine-3-carboxamide], the MEC was determined as 3 µM.

In the case of `Cc1cc(OCc2c(F)cccc2F)c2nc(C)c(C(=O)NCCCCCC#N)n2c1` [Example 10, N-(5-cyanopentyl)-8-[(2,6-difluorobenzyl)oxy]-2,6-dimethylimidazo[1,2-a]pyridine-3-carboxamide], the MEC is 0.1 µM.

Values taken from patent US9771360B2, “Cyano-substituted imidazo[1,2-A]pyridinecarboxamides and their use” (Bayer Pharma Aktiengesellschaft, priority 2014, dated 2017).
